# Where “and” joins values, the source holds several entries; their conditions need not be identical. Equal entries are not always repeated. Where two headings read alike, the source gives them in different places.
# How the values were obtained:
# [1] = Metabolic stability in pooled human liver microsomes; assay type: in vitro ADME; details: pooled human liver microsomes 0.5 mg/mL, 1 μM test compound, 37° C., * rows = mean of two runs; for half-life at 1 μM: human, pooled human liver microsomes
# How it was run: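 Pooled human liver microsomes (0.5 mg/mL in PBS) preincubated ±1 mM NADPH at 37° C; test compound added at 10 min to 1 μM final. Samples at 0, 5, 15 and 60 min quenched in acetonitrile, parent quantified by LC-MS/MS against a standard curve (terfenadine internal standard). Initial metabolic rate calculated with and without NADPH.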
# [2] = molecular target: T1, human recombinant AT2 receptor (Homo sapiens, UniProt P50052); test: Binding to AT2 receptor, radiometric scintillation assay (Eurofins ITEM26); details: for Ki: seven-point dose-response curve
# T1 construct: purchased Eurofins ITEM26 (protocol number)
# T1 sequence (P50052 1-363): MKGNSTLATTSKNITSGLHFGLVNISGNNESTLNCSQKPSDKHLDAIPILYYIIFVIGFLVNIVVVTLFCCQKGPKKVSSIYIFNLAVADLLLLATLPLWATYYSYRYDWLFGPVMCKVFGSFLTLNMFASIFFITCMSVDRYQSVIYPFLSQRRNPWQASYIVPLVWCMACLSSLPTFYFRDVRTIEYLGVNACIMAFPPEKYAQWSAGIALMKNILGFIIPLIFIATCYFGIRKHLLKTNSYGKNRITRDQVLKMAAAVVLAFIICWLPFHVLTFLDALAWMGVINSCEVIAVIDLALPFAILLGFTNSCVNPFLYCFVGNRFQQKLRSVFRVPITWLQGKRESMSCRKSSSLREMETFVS
# [3] = molecular target: T2, human recombinant AT1 receptor (Homo sapiens, UniProt P30556); test: Binding to AT1 receptor, radiometric scintillation assay (Eurofins ITEM24); details: test compounds at 1 and 10 μM, ligand 125I(sar1,Ile8)-AT-II; * rows = mean of runs
# T2 construct: purchased Eurofins ITEM24 (protocol number)
# T2 sequence (P30556 1-359): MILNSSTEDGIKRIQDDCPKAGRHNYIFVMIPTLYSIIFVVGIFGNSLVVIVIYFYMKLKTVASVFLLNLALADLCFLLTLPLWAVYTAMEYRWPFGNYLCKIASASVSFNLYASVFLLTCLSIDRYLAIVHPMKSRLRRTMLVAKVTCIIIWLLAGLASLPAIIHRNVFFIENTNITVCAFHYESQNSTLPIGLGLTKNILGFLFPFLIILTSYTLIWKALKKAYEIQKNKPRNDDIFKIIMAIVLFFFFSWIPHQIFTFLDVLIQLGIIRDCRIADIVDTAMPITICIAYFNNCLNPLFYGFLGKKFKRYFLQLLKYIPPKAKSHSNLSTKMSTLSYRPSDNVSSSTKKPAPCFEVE
# CYP1A2 = molecular target: T3, CYP1A2 (Homo sapiens, UniProt P05177); test: in vitro; assay type: in vitro ADME; details: human, microsomes, human liver microsomes, substrate phenacetin, read-out: CYP1A2 Inh %
# T3 construct: isoform-specific substrates incubated with human liver microsomes; tissue Eurofins ITEMG232 (protocol number); host or cells: human liver microsomes
# Method: The following substrates were used; CYP1A phenacetin, CYP2B36 bupropion, CYP2C8 paclitaxel and amodiaquine, CYP2C9 diclofenac, CYP2C19 omeprazole, CYP2D6 dextromethorphan, CYP3A midazolam and testosterone.
# At the end of the incubation, the formation of metabolite was monitored by HPLC-MS/MS as the peak area response.
# CYP2B6 = molecular target: T4, CYP2B6 (Homo sapiens, UniProt P20813); test: CYP inhibition in human liver microsomes (Eurofins ITEMG232); assay type: in vitro ADME; details: probe bupropion, substrate bupropion, read-out: CYP2B6 Inh %
# T4 construct: isoform-specific substrates incubated with human liver microsomes; tissue Eurofins ITEMG232 (protocol number); host or cells: human liver microsomes
# T4 sequence (P20813 1-491): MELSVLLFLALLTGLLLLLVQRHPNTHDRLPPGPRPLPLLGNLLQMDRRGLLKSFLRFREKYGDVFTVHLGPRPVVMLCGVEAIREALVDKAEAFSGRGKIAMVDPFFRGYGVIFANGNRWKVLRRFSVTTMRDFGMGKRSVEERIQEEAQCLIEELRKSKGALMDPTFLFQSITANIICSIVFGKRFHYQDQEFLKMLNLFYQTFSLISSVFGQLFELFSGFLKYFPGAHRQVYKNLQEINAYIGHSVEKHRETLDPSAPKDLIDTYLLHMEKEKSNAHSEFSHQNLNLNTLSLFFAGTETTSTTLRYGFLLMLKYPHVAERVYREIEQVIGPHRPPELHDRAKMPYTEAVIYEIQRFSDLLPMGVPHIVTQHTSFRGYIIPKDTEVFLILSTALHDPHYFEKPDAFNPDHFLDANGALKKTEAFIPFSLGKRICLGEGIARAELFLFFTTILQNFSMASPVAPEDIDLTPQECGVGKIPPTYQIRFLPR
# CYP2C19 = molecular target: T5, CYP2C19 (Homo sapiens, UniProt P33261); test: as above; assay type: in vitro ADME; details: human, probe omeprazole, substrate omeprazole, read-out: CYP2C19 Inh %
# T5 construct: isoform-specific substrates incubated with human liver microsomes; tissue Eurofins ITEMG232 (protocol number); host or cells: human liver microsomes
# CYP2C8 = molecular target: T6, CYP2C8 (Homo sapiens, UniProt P10632); test: as above; assay type: in vitro ADME; details: human, probe paclitaxel and amodiaquine, substrate paclitaxel and amodiaquine, read-out: CYP2C8 Inh %
# T6 construct: isoform-specific substrates incubated with human liver microsomes; tissue Eurofins ITEMG232 (protocol number); host or cells: human liver microsomes
# T6 sequence (P10632 1-490): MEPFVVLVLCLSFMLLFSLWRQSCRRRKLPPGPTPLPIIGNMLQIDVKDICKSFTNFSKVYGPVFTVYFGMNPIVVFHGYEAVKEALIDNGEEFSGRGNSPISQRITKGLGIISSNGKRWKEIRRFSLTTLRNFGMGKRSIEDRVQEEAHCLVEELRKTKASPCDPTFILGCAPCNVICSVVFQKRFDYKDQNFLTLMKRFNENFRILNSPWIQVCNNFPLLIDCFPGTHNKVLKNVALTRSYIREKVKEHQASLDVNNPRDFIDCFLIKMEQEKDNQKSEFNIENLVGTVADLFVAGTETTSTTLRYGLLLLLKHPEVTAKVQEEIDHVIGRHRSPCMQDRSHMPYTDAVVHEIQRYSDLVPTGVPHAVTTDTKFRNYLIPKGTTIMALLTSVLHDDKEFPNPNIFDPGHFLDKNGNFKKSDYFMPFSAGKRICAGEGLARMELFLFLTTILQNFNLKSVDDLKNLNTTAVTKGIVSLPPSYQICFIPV
# CYP2D6 = molecular target: T7, CYP2D6 (Homo sapiens, UniProt P10635); test: as above; assay type: in vitro ADME; details: probe dextromethorphan, substrate dextromethorphan, read-out: CYP2D6 Inh %
# T7 construct: isoform-specific substrates incubated with human liver microsomes; tissue Eurofins ITEMG232 (protocol number); host or cells: human liver microsomes
# CYP3A4&5 = test: in vitro; details: human, human liver microsomes, probe testosterone;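 note: Read-out is the metabolite generated from the probe substrate, quantified as HPLC-MS/MS peak area once incubation ends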
# CYP2C9 = CYP2C9 (Homo sapiens, UniProt P11712); test: CYP inhibition in human liver microsomes (Eurofins ITEMG232); assay type: in vitro ADME; design: isoform-specific substrates incubated with human liver microsomes; tissue Eurofins ITEMG232 (protocol number); host or cells: human liver microsomes; details: human, probe diclofenac, substrate diclofenac, read-out: CYP2C9 Inh %
# CYP3A4 = CYP3A4 (Homo sapiens, UniProt P08684); test: CYP inhibition in human liver microsomes (Eurofins ITEMG232), midazolam substrate; assay type: in vitro ADME; design: isoform-specific substrates incubated with human liver microsomes; tissue Eurofins ITEMG232 (protocol number); host or cells: human liver microsomes; details: human, probe midazolam, read-out: CYP3A4 midazolam Inh %
# [4] = with 1 mM NADPH, read-out: T1/2, + NaDPH
# [5] = without NADPH, read-out: T1/2, no NaDPH
# [6] = ligand 125I CGP 42112A, * rows = mean of runs
# [7] = test compounds at 1, 10, 100 and 1000 nM, ligand 125I CGP 42112A, * rows = mean of runs, read-out: AT2 GraFit IC50
# T3 sequence (P05177 whole entry, canonical isoform): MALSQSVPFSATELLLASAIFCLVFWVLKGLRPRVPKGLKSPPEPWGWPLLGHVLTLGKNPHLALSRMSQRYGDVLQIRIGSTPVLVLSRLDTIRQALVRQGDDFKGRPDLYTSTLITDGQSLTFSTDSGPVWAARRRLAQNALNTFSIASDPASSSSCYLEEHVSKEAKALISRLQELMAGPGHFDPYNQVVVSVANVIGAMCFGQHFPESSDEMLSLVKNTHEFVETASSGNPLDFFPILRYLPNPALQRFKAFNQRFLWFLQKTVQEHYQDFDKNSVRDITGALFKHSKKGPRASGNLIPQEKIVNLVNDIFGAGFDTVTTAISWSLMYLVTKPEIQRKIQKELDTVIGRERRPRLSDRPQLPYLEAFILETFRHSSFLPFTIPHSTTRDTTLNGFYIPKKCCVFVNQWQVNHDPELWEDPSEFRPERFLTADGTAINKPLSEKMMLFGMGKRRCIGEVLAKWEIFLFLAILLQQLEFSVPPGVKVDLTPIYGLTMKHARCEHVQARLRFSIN
# T5 sequence (P33261 whole entry, canonical isoform): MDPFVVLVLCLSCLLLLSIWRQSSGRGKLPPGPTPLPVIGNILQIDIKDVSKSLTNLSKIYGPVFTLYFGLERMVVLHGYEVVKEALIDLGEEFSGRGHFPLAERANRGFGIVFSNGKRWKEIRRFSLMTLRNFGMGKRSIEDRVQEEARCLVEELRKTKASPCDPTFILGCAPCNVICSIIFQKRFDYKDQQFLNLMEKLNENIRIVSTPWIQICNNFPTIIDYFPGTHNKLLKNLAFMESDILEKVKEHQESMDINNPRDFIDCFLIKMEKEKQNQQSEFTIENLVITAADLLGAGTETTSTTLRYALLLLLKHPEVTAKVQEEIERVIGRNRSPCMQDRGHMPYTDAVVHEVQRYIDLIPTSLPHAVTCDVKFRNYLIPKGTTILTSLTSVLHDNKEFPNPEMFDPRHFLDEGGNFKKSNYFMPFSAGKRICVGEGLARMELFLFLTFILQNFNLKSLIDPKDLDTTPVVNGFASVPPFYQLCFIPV
# CYP2C9, sequence (P11712 whole entry, canonical isoform): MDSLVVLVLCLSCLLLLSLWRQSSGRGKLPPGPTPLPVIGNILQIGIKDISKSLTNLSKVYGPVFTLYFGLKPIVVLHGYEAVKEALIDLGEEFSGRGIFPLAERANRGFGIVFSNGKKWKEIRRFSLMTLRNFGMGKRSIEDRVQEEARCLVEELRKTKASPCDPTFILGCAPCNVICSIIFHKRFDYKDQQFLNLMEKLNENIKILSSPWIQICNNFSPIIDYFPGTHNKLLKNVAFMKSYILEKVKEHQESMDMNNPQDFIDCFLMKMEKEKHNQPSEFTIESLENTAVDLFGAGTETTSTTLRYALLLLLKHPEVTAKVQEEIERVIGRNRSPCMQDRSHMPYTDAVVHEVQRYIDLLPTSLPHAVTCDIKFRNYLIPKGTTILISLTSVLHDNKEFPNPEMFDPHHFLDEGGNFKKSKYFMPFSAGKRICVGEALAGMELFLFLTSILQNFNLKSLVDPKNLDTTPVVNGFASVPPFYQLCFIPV
# T7 sequence (P10635 whole entry, canonical isoform): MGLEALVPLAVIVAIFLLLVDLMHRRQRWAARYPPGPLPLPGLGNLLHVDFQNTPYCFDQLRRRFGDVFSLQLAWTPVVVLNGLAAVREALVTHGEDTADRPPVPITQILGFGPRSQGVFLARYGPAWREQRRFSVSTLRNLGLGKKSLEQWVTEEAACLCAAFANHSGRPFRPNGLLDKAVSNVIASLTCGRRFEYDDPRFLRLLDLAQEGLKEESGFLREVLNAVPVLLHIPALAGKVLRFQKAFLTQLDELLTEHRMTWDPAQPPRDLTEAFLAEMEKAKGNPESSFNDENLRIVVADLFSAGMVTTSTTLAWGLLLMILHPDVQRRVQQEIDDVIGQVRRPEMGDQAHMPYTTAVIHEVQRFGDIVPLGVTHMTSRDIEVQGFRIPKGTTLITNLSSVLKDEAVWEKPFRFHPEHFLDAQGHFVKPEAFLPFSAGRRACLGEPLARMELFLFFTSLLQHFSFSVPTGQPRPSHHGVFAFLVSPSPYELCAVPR
# CYP3A4, sequence (P08684 whole entry, canonical isoform): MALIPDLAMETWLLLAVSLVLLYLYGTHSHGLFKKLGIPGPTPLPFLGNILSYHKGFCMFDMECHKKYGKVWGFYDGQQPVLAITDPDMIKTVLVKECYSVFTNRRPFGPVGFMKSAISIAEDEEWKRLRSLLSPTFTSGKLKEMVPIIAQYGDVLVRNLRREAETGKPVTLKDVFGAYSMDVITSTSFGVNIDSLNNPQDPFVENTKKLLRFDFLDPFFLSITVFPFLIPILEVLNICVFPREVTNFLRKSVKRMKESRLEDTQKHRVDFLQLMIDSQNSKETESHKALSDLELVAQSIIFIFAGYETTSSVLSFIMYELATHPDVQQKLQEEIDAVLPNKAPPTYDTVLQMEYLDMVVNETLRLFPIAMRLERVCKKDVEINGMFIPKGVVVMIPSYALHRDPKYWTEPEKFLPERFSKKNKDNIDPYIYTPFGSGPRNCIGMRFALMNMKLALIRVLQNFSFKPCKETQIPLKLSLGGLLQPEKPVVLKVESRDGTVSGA
"half-life at 1 μM [1, 4] [h]","half-life at 1 μM [1, 5] [h]","Ki [2, 6] [nM]","IC50 [2, 7] [nM]",IC50 [3],"T1/2, + NaDPH ([1]; with 1 mM NADPH) [h]","T1/2, + NaDPH ([1]; with 1 mM NADPH, listed as Example 32*) [h]","IC50 ([2]; AT2 GraFit IC50, value in parentheses after <0.3, value printed in parentheses behind the bound <0.3) [nM]",inhibition at 10 µM (CYP1A2) [%],inhibition at 10 µM (CYP2B6) [%],inhibition at 10 µM (CYP2C19) [%],inhibition at 10 µM (CYP2C8) [%],inhibition at 10 µM (CYP2D6) [%],inhibition at 10 µM (CYP3A4&5) [%],inhibition at 10 µM (CYP2C9) [%],inhibition at 10 µM (CYP3A4) [%],Structure (SMILES)
> 1,> 1,0.68,1.36,6700 nM,,,,,,,,,,,,"CC(C)Cc1cc(-c2ccc(Cn3ccnc3C(C)C)cc2)c(S(=O)(=O)Nc2ncccn2)s1 [Example 49, 5-Isobutyl-3-(4-((2-isopropyl-1H-imidazol-1-yl)methyl)phenyl)-N-(pyrimidin-2-yl)thiophene-2-sulfonamide]"
0.233,> 1,0.92,1.84,14100 nM and 8500 nM and 11300 nM,0.217,0.225,,,,,,,,,,"CC(C)Cc1ccc(S(=O)(=O)Nc2ccsn2)c(-c2ccc(Cn3ccnc3C(C)(C)C)c(F)c2)c1 [Example 32, 4′-((2-(tert-Butyl)-1H-imidazol-1-yl)methyl)-3′-fluoro-5-isobutyl-N-(isothiazol-3-yl)-[1,1′-biphenyl]-2-sulfonamide]"
> 1,> 1,0.64,1.28,13900 nM,,,,,,,,,,,,"CCc1nccn1Cc1ccc(-c2cc(CC(C)C)sc2S(=O)(=O)Nc2ncccn2)cc1 [Example 51, 3-(4-((2-Ethyl-1H-imidazol-1-yl)methyl)phenyl)-5-isobutyl-N-(pyrimidin-2-yl)thiophene-2-sulfonamide]"
0.133,> 1,59.7,119,30800 nM,,,,,,,,,,,,"COc1cc(NS(=O)(=O)c2ccc(CC(C)C)cc2-c2ccc(Cn3ccnc3C(C)(C)C)c(F)c2)nc(OC)n1 [Example 35, 4′-((2-(tert-Butyl)-1H-imidazol-1-yl)methyl)-N-(2,6-dimethoxypyrimidin-4-yl)-3′-fluoro-5-isobutyl-[1,1′-biphenyl]-2-sulfonamide]"
> 1,> 1,,< 0.3,4900 nM,,,0.25,,,,,,,,,"CC(C)Cc1cc(-c2ccc(Cn3ccnc3C3CC3)c(F)c2)c(S(=O)(=O)Nc2ncccn2)s1 [Example 47, 3-(4-((2-Cyclopropyl-1H-imidazol-1-yl)methyl)-3-fluorophenyl)-5-isobutyl-N-(pyrimidin-2-yl)thiophene-2-sulfonamide]"
> 1,> 1,0.72,1.44,35100 nM,,,,,,,,,,,,"Cc1nccn1Cc1ccc(-c2cc(CC(C)C)sc2S(=O)(=O)Nc2ncccn2)cc1 [Example 50, 5-Isobutyl-3-(4-((2-methyl-1H-imidazol-1-yl)methyl)phenyl)-N-(pyrimidin-2-yl)thiophene-2-sulfonamide]"
0.233,> 1,0.32,0.64,,,,,6.6,5.7,63.5,24.6,4.5,39.7,42.9,55.8,"COc1ccc(NS(=O)(=O)c2ccc(CC(C)C)cc2-c2ccc(Cn3ccnc3C(C)(C)C)c(F)c2)nn1 [Example 23, 4′-((2-(tert-Butyl)-1H-imidazol-1-yl)methyl)-3′-fluoro-5-isobutyl-N-(6-methoxypyridazin-3-yl)-[1,1′-biphenyl]-2-sulfonamide]"
> 1,> 1,0.31,0.61,,,,,17.4,15.7,22.2,21.3,13.8,25.9,31.6,28.3,"CC(C)Cc1ccc(S(=O)(=O)Nc2ncccn2)c(-c2ccc(Cn3ccnc3C(C)C)c(F)c2)c1 [Example 27, 3′-Fluoro-5-isobutyl-4′-((2-isopropyl-1H-imidazol-1-yl)methyl)-N-(pyrimidin-2-yl)-[1,1′-biphenyl]-2-sulfonamide]"
> 1,> 1,0.4,0.8,,,,,22.2,40.8,65,41.6,14.2,37.4,31.1,34.8,"Cc1nccn1Cc1ccc(-c2cc(CC(C)C)ccc2S(=O)(=O)Nc2ncccn2)cc1F [Example 28, 3′-Fluoro-5-isobutyl-4′-((2-methyl-1H-imidazol-1-yl)methyl)-N-(pyrimidin-2-yl)-[1,1′-biphenyl]-2-sulfonamide]"

# From patent US12441718B2, “Selective angiotensin II compounds” (VICORE PHARMA AB, priority 2021, dated 2025)
